Test results taken from patent US8906929B2, “Inhibitors of human immunodeficiency virus replication” (priority 2012, dated 2014).

Test system: recombinant NL-Rluc virus
Assay: Inhibition of HIV replication (NL-RLuc virus in MT-2 cells, luciferase readout)
Assay type: cell-based
Conditions: 5 days of incubation, 10% FBS
[1] = Human immunodeficiency virus 1, MT2, 120 h

Row | Compound | EC50 | EC50 [1]
1 | Cc1nc2cc3nn2c(c1[C@H](OC(C)(C)C)C(=O)O)-c1ccc2c(c1)C(CCCCCc1ccccc1-c1cccc-3c1)CCO2 (single isomer, unassigned) [Example 8] | 51 nM | 
2 | Cc1nc2cc3nn2c(c1[C@H](OC(C)(C)C)C(=O)O)-c1ccc2c(c1)C(CCCCCc1ccccc1-c1cccc-3c1)CCO2 (single isomer, unassigned) [Example 9] | 3680 nM | 
3 | Cc1nc2cc3nn2c(c1[C@H](OC(C)(C)C)C(=O)O)-c1ccc2c(c1)C(CCCCc1ccccc1-c1cccc-3c1)CCO2 (single isomer, unassigned) [Example 10] | 237 nM | 
4 | Cc1nc2cc3nn2c(c1[C@H](OC(C)(C)C)C(=O)O)-c1ccc2c(c1)C(CCCCc1ccccc1-c1cccc-3c1)CCO2 (single isomer, unassigned) [Example 11] | 1270 nM | 
5 | Cc1nc2cc3nn2c(c1[C@H](OC(C)(C)C)C(=O)O)-c1ccc2c(c1)[C@H](CCCCOc1ccccc1-c1cccc-3c1)CCO2 (single isomer, unassigned) [Example 12] |  | 7 nM
6 | Cc1nc2cc3nn2c(c1[C@H](OC(C)(C)C)C(=O)O)-c1ccc2c(c1)[C@@H](CCCCOc1ccccc1-c1cccc-3c1)CCO2 (single isomer, unassigned) [Example 13] |  | 216 nM
7 | Cc1nc2cc3nn2c(c1[C@H](OC(C)(C)C)C(=O)O)-c1ccc2c(c1)[C@@H](CC=CCOc1ccccc1-c1cccc-3c1)CCO2 (single isomer, unassigned) [Example 14] |  | 383 nM
8 | Cc1nc2cc3nn2c(c1[C@H](OC(C)(C)C)C(=O)O)-c1ccc2c(c1)[C@H](CC=CCOc1ccccc1-c1cccc-3c1)CCO2 (single isomer, unassigned) [Example 15] |  | 4 nM
9 | Cc1nc2cc3nn2c(c1[C@H](OC(C)(C)C)C(=O)O)N1CCC(C)(CC1)OCC=C[C@@H](C)Oc1ccccc1-c1cccc-3c1 (single isomer, unassigned) [Example 22] |  | 36 nM
10 | Cc1ccc2c(c1)-c1cccc(c1)-c1cc3nc(C)c([C@H](OC(C)(C)C)C(=O)O)c(n3n1)N1CCC(C)(CC1)OCCCC(C)C(C)O2 (single isomer, unassigned) [Example 92] | 968 nM | 
11 | Cc1ccc2c(c1)-c1cccc(c1)-c1cc3nc(C)c([C@H](OC(C)(C)C)C(=O)O)c(n3n1)N1CCC(C)(CC1)OCCCC(C)C(C)O2 (single isomer, unassigned) [Example 93] | 95 nM | 
12 | Cc1ccc2c(c1)-c1cccc(c1)-c1cc3nc(C)c([C@H](OC(C)(C)C)C(=O)O)c(n3n1)N1CCC(C)(CC1)OCCCC(C)C(C)O2 (single isomer, unassigned) [Example 94] | 35 nM | 
13 | Cc1ccc2c(c1)-c1cccc(c1)-c1cc3nc(C)c([C@H](OC(C)(C)C)C(=O)O)c(n3n1)N1CCC(C)(CC1)OCCCC(C)C(C)O2 (single isomer, unassigned) [Example 95] | 36 nM | 
14 | Cc1ccc2c(c1)-c1cccc(c1)-c1cc3nc(C)c([C@H](OC(C)(C)C)C(=O)O)c(n3n1)N1CCC(C)(CC1)OCCCC(C)CO2 (single isomer, unassigned) [Example 103] |  | 25 nM
15 | Cc1ccc2c(c1)-c1cccc(c1)-c1cc3nc(C)c([C@H](OC(C)(C)C)C(=O)O)c(n3n1)N1CCC(C)(CC1)OCCCC(C)CO2 (single isomer, unassigned) [Example 104] | 26 nM | 
16 | Cc1nc2cc3nn2c(c1[C@H](OC(C)(C)C)C(=O)O)-c1ccc2c(c1Cl)N(C/C=C\CCc1cccc(c1)-c1cccc-3c1)CCO2 [Example 1, (2S)-2-(tert-Butoxy)-2-[(22Z)-32-chloro-4-methyl-28-oxa-5,7,8,25-tetraazaheptacyclo[23.6.2.1^6,^9.1^10,^14.1^15,^19.0^2,^7.0^29,^33]hexatriaconta-1(31),2,4,6(36),8,10(35), 11,13,15(34), 16,18,22,29,32-tetradecaen-3-yl]acetic acid] |  | 853 nM
17 | Cc1nc2cc3nn2c(c1[C@H](OC(C)(C)C)C(=O)O)-c1ccc2c(c1Cl)N(C/C=C/CCc1cccc(c1)-c1cccc-3c1)CCO2 [Example 2, (2S)-2-(tert-Butoxy)-2-[(22E)-32-chloro-4-methyl-28-oxa-5,7,8,25-tetraazaheptacyclo[23.6.2.1^6,^9.1^10,^14.1^15,^19.0^2,^7.0^29,^33]hexatriaconta-1 (31), 2,4,6(36),8,10(35), 11, 13, 15(34), 16,18,22,29,32-tetradecaen-3-yl]acetic acid] |  | 722 nM
18 | Cc1nc2cc3nn2c(c1[C@H](OC(C)(C)C)C(=O)O)-c1ccc2c(c1Cl)N(CCCCOc1cccc(c1)-c1cccc-3c1)CCO2 [Example 3, (2S)-2-(tert-Butoxy)-2-{32-chloro-4-methyl-20,28-dioxa-5,7,8,25-tetraazaheptacyclo[23.6.2.1^6,^9.1^10,^14.1^15,^19.0^2,^7.0^29,^33]hexatriaconta-1(31), 2,4, 6(36), 8, 10(35), 11, 13, 15 (34), 16,18,29,32-tridecaen-3-yl}acetic acid] |  | 418 nM
19 | Cc1nc2cc3nn2c(c1[C@H](OC(C)(C)C)C(=O)O)-c1ccc2c(c1Cl)N(CC=CCCc1ccccc1-c1cccc-3c1)CCO2 [Example 4] |  | 125 nM
20 | Cc1nc2cc3nn2c(c1[C@H](OC(C)(C)C)C(=O)O)-c1ccc2c(c1Cl)N(CCCCCCOc1ccccc1-c1cccc-3c1)CCO2 [Example 5, (2S)-2-(tert-Butoxy)-2-{35-chloro-4-methyl-21,31-dioxa-5,7,8,28-tetraazaheptacyclo[26.6.2.1^6,^9.1^10,^14.0^2,^7.0^15,^200^32,36]octatriaconta-1(34),2,4,6(38),8,10(37), 11, 13, 15 (20), 16,18,32,35-tridecaen-3-yl}acetic acid] |  | 30 nM
21 | Cc1nc2cc3nn2c(c1[C@H](OC(C)(C)C)C(=O)O)-c1cc2c(cc1F)OCCN2CCCCCc1ccccc1-c1cccc-3c1 [Example 6, (2S)-2-(tert-Butoxy)-2-{32-fluoro-4-methyl-29-oxa-5,7,8,26-tetraazaheptacyclo[24.6.2.1^6,^9.1^10,^14.0^2,^7.0^15,^20.0^30,^34]hexatriaconta-1(32),2,4,6(36),8,10(35), 11, 13, 15(20), 16,18,30,33-tridecaen-3-yl}acetic acid] |  | 54 nM
22 | Cc1cc2c3cc1-c1c([C@H](OC(C)(C)C)C(=O)O)c(C)nc4cc(nn14)-c1cccc(c1)-c1ccccc1CCCCCN3CCO2 [Example 7, (2S)-2-(tert-Butoxy)-2-{4,32-dimethyl-29-oxa-5,7,8,26-tetraazaheptacyclo[24.6.2.1^6,^9.1^10,^14.0^2,^7.0^15,^200^30,^34]hexatriaconta-1(32), 2,4,6(36),8,10(35), 11, 13, 15(20), 16,18,30,33-tridecaen-3-yl}acetic acid] |  | 3510 nM
23 | Cc1nc2cc3nn2c(c1[C@H](OC(C)(C)C)C(=O)O)-c1cc(F)c2c(c1)N(CCCCCc1ccccc1-c1cccc-3c1)CCO2 [Example 16, (2S)-2-(tert-Butoxy)-2-{31-fluoro-4-methyl-29-oxa-5,7,8,26-tetraazaheptacyclo[24.6.2.1^6,^9.1^10,^14.0^2,^7.0^15,^20.0^30,^34]hexatriaconta-1(32),2,4,6(36),8,10(35), 11, 13, 15(20),16,18,30,33-tridecaen-3-yl}acetic acid] |  | 177 nM
24 | Cc1nc2cc3nn2c(c1[C@H](OC(C)(C)C)C(=O)O)-c1ccc2c(c1Cl)N(CCCCCc1ccccc1-c1cccc-3c1)CCO2 [Example 17, (2S)-2-(tert-Butoxy)-2-{33-chloro-4-methyl-29-oxa-5,7,8,26-tetraazaheptacyclo[24.6.2.1^6,^9.1^10,^14.0^2,^7.0^15,^20.0^30,^34]hexatriaconta-1(32),2,4,6(36),8,10(35), 11,13,15(20),16,18,30,33-tridecaen-3-yl}acetic acid] |  | 145 nM
25 | Cc1nc2cc3nn2c(c1[C@H](OC(C)(C)C)C(=O)O)N1CCC(C)(CC1)OCC=CCCc1ccccc1-c1cccc-3c1 [Example 18, (2S)-2-(tert-Butoxy)-2-[4,27-dimethyl-26-oxa-1,5,7,8-tetraazahexacyclo[25.2.2.1^6,^9.1^10,^14.0^2,^7.0^15,^20]tritriaconta-2,4,6(33),8,10(32),11,13,15(20),16,18,23-undecaen-3-yl]acetic acid] |  | 16 nM
26 | Cc1nc2cc3nn2c(c1[C@H](OC(C)(C)C)C(=O)O)N1CCC(C)(CC1)OCCCCCc1ccccc1-c1cccc-3c1 [Example 19, (2S)-2-(tert-Butoxy)-2-{4,27-dimethyl-26-oxa-1,5,7,8-tetraazahexacyclo[25.2.2.1^6,^9.1^10,^14. 0^2,^7. 0^15,^20]-tritriaconta-2,4,6(33),8,10(32),11,13,15(20),16,18-decaen-3-yl}acetic acid] |  | 21 nM
27 | Cc1nc2cc3nn2c(c1[C@H](OC(C)(C)C)C(=O)O)N1CCC(C)(CC1)OC/C=C/COc1ccccc1-c1cccc-3c1 [Example 20, (2S)-2-(tert-Butoxy)-2-[(23E)-4,27-dimethyl-21,26-dioxa-1,5,7,8-tetraazahexacyclo[25.2.2.1^6,^9.1^10,^14.0^2,^7.0^15,^20]tritriaconta-2,4,6(33),8,10(32),11,13,15(20),16,18,23-undecaen-3-yl]acetic acid] |  | 5 nM
28 | Cc1nc2cc3nn2c(c1[C@H](OC(C)(C)C)C(=O)O)N1CCC(C)(CC1)OCCCCOc1ccccc1-c1cccc-3c1 [Example 21, (2S)-2-(tert-Butoxy)-2-{4,27-dimethyl-21,26-dioxa-1,5,7,8-tetraazahexacyclo[25.2.2.1^6,^9.1^10,^14.0^2,^7.0^15,^20]-tritriaconta-2,4, 6(33), 8, 10(32), 11, 13, 15(20),16,18-decaen-3-yl}acetic acid] |  | 7 nM
29 | Cc1nc2cc3nn2c(c1[C@H](OC(C)(C)C)C(=O)O)N1CCC(C)(CC1)OCC=C[C@H](C)Oc1ccccc1-c1cccc-3c1 [Example 23, (2S)-2-(tert-Butoxy)-2-[(22S)-4,22,27-trimethyl-21,26-dioxa-1,5,7,8-tetraazahexacyclo[25.2.2.1^6,^9.1^10,^14.0^2,^7.0^15,^20]tritriaconta-2,4,6(33),8,10(32),11,13,15(20),16,18,23-undecaen-3-yl]acetic acid] |  | 11 nM
